Assay results: patent US8530404B2, “Compounds and methods for treatment of cancer” (FibroGen, Inc., priority 2005, dated 2013)
Read-outs that look alike come from different tables or passages of the source.

Legend:
[1] = tested on: BNIP3 gene expression; experiment: BNIP3 gene expression in Kelly neuroblastoma cells; format: cell-based; settings: Kelly, read-out: fold-increase in BNIP3 mRNA expression
Description: (§1) To identify compounds useful in the methods of the present invention, the following studies were performed. The effect of compounds of the present invention on expression of various genes associated with anti-tumor activity (e.g., genes having anti-proliferative activity, genes having pro-apoptotic activity, genes having anti-tumor activity, etc.). In these experiments, the effect of compounds on BNIP3, BNIP3L, NDRG1, CDKN1C, and REDD1/RTP801 gene expression in various types of cultured tumor cells line was examined, including Hep3B cells (human hepatocellular carcinoma), Kelly neuroblastoma cells, and MCF7 cells (human breast cancer)
(§2) The effects of various compounds of the present invention on the expression of genes associated with tumor growth and progression were examined in Kelly neuroblastoma cells as follows. Kelly neuroblastoma cells were grown in RPMI media. For each experiment, Kelly neuroblastoma cells were added to 96-well tissue culture plates (approximately 40,000 cells per well) such that the plated cells reached confluence the following day. On the following day, the cells were washed and the media replaced with RPMI containing 0.5% FBS. Various compounds of the present invention were added to the cultured cells to a final concentration of 20 μM, and the cells cultured for an additional 20-24 hours. DMSO (0.5%) was added to control cell cultures.
(§3) RNA was isolated from the Kelly neuroblastoma cells using a commercial kit and used for the preparation of cDNA. BNIP3, CDKN1C, and 18S RNA levels were measured using commercial kits (18S, Applied Biosystems cat#4319413E); BNIP3, Applied Biosystems cat#HS00969293 MH). RNA levels for BNIP3 and CDKN1C were normalized to that of 18S RNA and is presented as fold-change compared to that observed in DMSO control cultures. Kelly cell NDRG1 and BNIP3L mRNA levels were measured by Affymetrix microarray in a separate study. Cells were harvested after 6 hours incubation with 20 μM test compound or DMSO (0.5%) as control. RNA was isolated and labeled probes were prepared and hybridized to U133 Plus 2.0 Affymetrix microarrays. Changes in gene expression levels are presented as fold change compared to that of control (0.5% DMSO-treated) cultures.

[2] = tested on: CDKN1C gene expression; experiment: CDKN1C gene expression in Kelly neuroblastoma cells; format: cell-based; settings: Kelly, read-out: fold-increase in CDKN1C mRNA expression
Description: as §1, §2, §3

[3] = tested on: BNIP3 gene expression; experiment: In vivo BNIP3 gene expression in Swiss Webster mice (quantitative PCR); settings: Mus musculus, iv, 4 h, single 60 mg/kg i.v. dose, four hours after administration, normalized to 18S
Description: (§4) The effects of various compounds of the present invention on the expression of genes associated with tumor growth and progression (e.g., expression of genes associated with anti-proliferative effects) were examined in vivo as follows. In these studies, male Swiss Webster mice (25 g) were administered a single intravenous (i.v.) dose of various compounds (60 mg/kg) of the present invention via the tail vein. Four hours after administration of compound, the kidneys and liver were removed and preserved in RNAlater (Ambion). RNA isolation and cDNA synthesis was carried out as follows. Murine kidney tissue was added to TRIzol (Invitrogen) and homogenized using a 5-mm stainless steel bead for 4 minutes at 25 Hz in a Mixer Mill 300 (Qiagen). Homogenates were extracted with chloroform according to the manufacturer's instructions and aqueous supernatants were isolated. The aqueous supernatants were combined with equal volumes of 70% ethanol and then loaded onto RNeasy Mini spin columns (Qiagen). RNA was isolated according to the manufacturer's instructions.
(§5) Synthesis of cDNA from the isolated total RNA was carried out using Omniscript reverse transcriptase (Qiagen) and random primers according to the manufacturer's instructions. Measurement of gene expression levels in compound-treated animals and in vehicle-treated control animals was performed by quantitative PCR using TaqMan Universal PCR Master Mix (Applied Biosystems) and TaqMan Assay-on-Demand assays (Applied Biosystems) in a Prism 7000 system instrument (Applied Biosystems), according to manufacturer's instructions. The assays used were as follows: 18S ribosomal RNA, Hs99999901_s1; BNIP3, Mm00833810_g1; BNIP3L, Mm00786306_s1; NDRG1, Mm00440447_m1. Each PCR amplification reaction included a standard curve and a water blank. Data for gene expression levels for BNIP3, BNIP3L, and NDRG1 were normalized to that of 18S ribosomal RNA within each sample. Data is presented as fold change in specific mRNA levels relative to that of non-treated control animals.

[4] = tested on: BNIP3L gene expression; experiment: In vivo BNIP3L gene expression in Swiss Webster mice (quantitative PCR); settings: Mus musculus, iv, 4 h, single 60 mg/kg i.v. dose, four hours after administration, normalized to 18S
Description: as §4, §5

[5] = tested on: NDRG1 gene expression; experiment: In vivo NDRG1 gene expression in Swiss Webster mice (quantitative PCR); settings: Mus musculus, iv, 4 h, read-out: fold change in NDRG1 mRNA level
Description: as §4, §5

[6] = tested on: human A549 lung tumors; experiment: Subcutaneously implanted human A549 lung tumor mouse xenograft (Example 2); format: in vivo
[7] = Body weight in H-460 xenograft mice (Example 1); format: in vivo, mouse
Description: Sizes of the primary tumors were measured through the skin with calipers once per week. Tumor volumes were calculated by the formula V═(W^2*L)/2. Body weight of the mice in each group was also measured once per week during the experimental period. All animals were sacrificed following thirty-two days of treatment. Primary tumors were excised and weighed on an electronic balance. Blood samples were taken during terminal sacrifice and placed in microhematocrit tubes containing EDTA. Complete Blood Counts (CBC) and reticulocyte analysis were performed with the Cell Dyn 3700 analyzer (Abbott Diagnostics), as described by the manufacturer.
Thus, differences in tumor progression as measured by mean tumor volumes could not be attributed to any generalized toxicity or suppression of normal metabolism that might have been detected by changes in body weights.

[8] = read-out: fold change in BNIP3 mRNA level, kidney
[9] = read-out: fold change in BNIP3 mRNA level, liver
[10] = read-out: fold change in BNIP3L mRNA level, kidney
[11] = read-out: fold change in BNIP3L mRNA level, liver

| SMILES | fold induction at 20 µM [1] | fold induction at 20 µM [2] | fold induction at 60 mg/kg [3, 8] | fold induction at 60 mg/kg [3, 9] | fold induction at 60 mg/kg [4, 10] | fold induction at 60 mg/kg [4, 11] | fold induction at 60 mg/kg [5] | A549 mean tumor volume ([6]; week 5, 20 mg/kg PO) | A549 mean tumor volume ([6]; week 6, 20 mg/kg PO) | A549 mean tumor volume ([6]; week 7, 20 mg/kg PO) | A549 mean tumor volume ([6]; week 8, 20 mg/kg PO) | A549 mean tumor volume ([6]; week 9, 20 mg/kg PO) | mean animal body weight ([7]; day 0, 20 mg/kg PO) | mean animal body weight ([7]; day 10, 20 mg/kg PO) | mean animal body weight ([7]; day 17, 20 mg/kg PO) | mean animal body weight ([7]; day 24, 20 mg/kg PO) | mean animal body weight ([7]; day 31, 20 mg/kg PO) | further results |
| --- | --- | --- | --- | --- | --- | --- | --- | --- | --- | --- | --- | --- | --- | --- | --- | --- | --- | --- |
| O=C(O)CNC(=O)c1ncc2cc(Oc3ccc(F)cc3)ccc2c1O [Compound E, {[7-(4-fluoro-phenoxy)-4-hydroxy-isoquinoline-3-carbonyl]-amino}-acetic acid] | 31.8 | 184 | 2.1 | 1.8 | 0.8 | 1.7 | 1.8 |  |  |  |  |  |  |  |  |  |  |  |
| Cc1nc(C(=O)NCC(=O)O)c(O)c2ccc(Oc3ccccc3)cc12 [Compound D, [(4-Hydroxy-1-methyl-7-phenoxy-isoquinoline-3-carbonyl)-amino]-acetic acid] | 21.9 | 382 | 5.8 | 1.5 | 5 | 1.2 | 3.6 | 272 mm^3 | 304 mm^3 | 373 mm^3 | 411 mm^3 | 466 mm^3 |  |  |  |  |  | tumor weight at necropsy, Mean ([6]; 6 mg/kg PO): 0.51 g; A549 mean tumor volume ([6]; week 0, 6 mg/kg PO): 109 mm^3; A549 mean tumor volume ([6]; week 1, 6 mg/kg PO): 137 mm^3; A549 mean tumor volume ([6]; week 2, 6 mg/kg PO): 178 mm^3; A549 mean tumor volume ([6]; week 3, 6 mg/kg PO): 209 mm^3; A549 mean tumor volume ([6]; week 4, 6 mg/kg PO): 263 mm^3; A549 mean tumor volume ([6]; week 5, 6 mg/kg PO): 292 mm^3; A549 mean tumor volume ([6]; week 6, 6 mg/kg PO): 339 mm^3; A549 mean tumor volume ([6]; week 7, 6 mg/kg PO): 375 mm^3; A549 mean tumor volume ([6]; week 8, 6 mg/kg PO): 431 mm^3; A549 mean tumor volume ([6]; week 9, 6 mg/kg PO): 476 mm^3 |
| O=C(O)CNC(=O)c1nc(Cl)c2ccccc2c1O [Compound A, [(1-Chloro-4-hydroxy-isoquinoline-3-carbonyl)-amino]-acetic acid] |  |  |  |  |  |  |  | 375 mm^3 | 428 mm^3 | 523 mm^3 | 547 mm^3 | 615 mm^3 | 25.2 grams | 30.1 grams | 30.5 grams | 30.6 grams | 30.3 grams | mean animal body weight ([7]; day 0, 60 mg/kg PO): 24.5 grams; mean animal body weight ([7]; day 10, 60 mg/kg PO): 30.0 grams; mean animal body weight ([7]; day 17, 60 mg/kg PO): 30.5 grams; mean animal body weight ([7]; day 24, 60 mg/kg PO): 30.6 grams; mean animal body weight ([7]; day 31, 60 mg/kg PO): 29.9 grams; tumor weight at necropsy, Mean ([6]; 60 mg/kg PO): 0.81 g; A549 mean tumor volume ([6]; week 0, 60 mg/kg PO): 105 mm^3; A549 mean tumor volume ([6]; week 1, 60 mg/kg PO): 133 mm^3; A549 mean tumor volume ([6]; week 2, 60 mg/kg PO): 175 mm^3; A549 mean tumor volume ([6]; week 3, 60 mg/kg PO): 234 mm^3; A549 mean tumor volume ([6]; week 4, 60 mg/kg PO): 324 mm^3; A549 mean tumor volume ([6]; week 5, 60 mg/kg PO): 348 mm^3; A549 mean tumor volume ([6]; week 6, 60 mg/kg PO): 425 mm^3; A549 mean tumor volume ([6]; week 7, 60 mg/kg PO): 514 mm^3; A549 mean tumor volume ([6]; week 8, 60 mg/kg PO): 538 mm^3; A549 mean tumor volume ([6]; week 9, 60 mg/kg PO): 597 mm^3 |
| C[C@H](NC(=O)c1ncc2cc(Oc3ccccc3)ccc2c1O)C(=O)O [Compound B, (S)-2-[(4-Hydroxy-7-phenoxy-isoquinoline-3-carbonyl)-amino]-propionic acid] | 17.2 | 91 | 2.1 |  | 1.2 |  | 0.9 |  |  |  |  |  | 25.7 grams | 27.8 grams | 29.0 grams | 29.3 grams | 29.3 grams | mean animal body weight ([7]; day 0, 6 mg/kg PO): 26.3 grams; mean animal body weight ([7]; day 10, 6 mg/kg PO): 27.9 grams; mean animal body weight ([7]; day 17, 6 mg/kg PO): 29.1 grams; mean animal body weight ([7]; day 24, 6 mg/kg PO): 29.3 grams; mean animal body weight ([7]; day 31, 6 mg/kg PO): 29.3 grams |
